PMC5218480 (PLoS ONE, 2017)

Tested on: MV-4-11 cells
Assay: Gene expression microarray analysis (Affymetrix PrimeView) and GSEA
Type: cell-based, human
Design: RFU PODN (11730768_x_at) / Fold change /veh PODN (11730768_x_at) / RFU LINC00158 (11744669_a_at) / Fold change /veh LINC00158 (11744669_a_at) / RFU DUSP10 (11751237_a_at) / Fold change /veh DUSP10 (11751237_a_at) / RFU ID3 (11757404_x_at) / Fold change /veh ID3 (11757404_x_at) / RFU PLEKHG5 (11737974_s_at) / Fold change /veh PLEKHG5 (11737974_s_at) / RFU LRRC4B (11730491_at) / Fold change /veh LRRC4B (11730491_at) / RFU GIMAP4 (11747438_a_at) / Fold change /veh GIMAP4 (11747438_a_at) / RFU KRT8 (11758183_x_at) / Fold change /veh KRT8 (11758183_x_at) / RFU CNN1 (11734310_a_at) / Fold change /veh CNN1 (11734310_a_at) / RFU VPS37D (11726825_at) / Fold change /veh VPS37D (11726825_at) / RFU C10orf10 (11716522_x_at) / Fold change /veh C10orf10 (11716522_x_at) / RFU KIR2DL2 /// KIR2DL4 /// KIR2DL5A /// KIR2DL5B /// KIR2DS1 /// KIR2DS2 /// KIR2DS3 /// KIR2DS4 /// KIR3DL3 /// KIR3DL3 /// KIR3DS1 (11738374_at) / Fold change /veh KIR2DL2 /// KIR2DL4 /// KIR2DL5A /// KIR2DL5B /// KIR2DS1 /// KIR2DS2 /// KIR2DS3 /// KIR2DS4 /// KIR3DL3 /// KIR3DL3 /// KIR3DS1 (11738374_at) / RFU C1QL1 (11718748_at) / Fold change /veh C1QL1 (11718748_at) / RFU TMPRSS4 (11747572_a_at) / Fold change /veh TMPRSS4 (11747572_a_at) / RFU HAMP (11756126_x_at) / Fold change /veh HAMP (11756126_x_at) / RFU RNFT2 (11725882_a_at) / Fold change /veh RNFT2 (11725882_a_at) / RFU NR4A2 (11747474_a_at) / Fold change /veh NR4A2 (11747474_a_at) / RFU ABCC12 (11746883_a_at) / Fold change /veh ABCC12 (11746883_a_at) / RFU TMEM136 (11760407_x_at) / Fold change /veh TMEM136 (11760407_x_at) / RFU CLDN22 /// WWC2 (11732394_at) / Fold change /veh CLDN22 /// WWC2 (11732394_at) / RFU HLA-DPB1 (11760878_x_at) / Fold change /veh HLA-DPB1 (11760878_x_at) / RFU SPINT1 (11716480_a_at) / Fold change /veh SPINT1 (11716480_a_at) / RFU GAP43 (11754022_s_at) / Fold change /veh GAP43 (11754022_s_at) / RFU A4GNT (11735810_at) / Fold change /veh A4GNT (11735810_at) / RFU PRB3 (11715151_x_at) / Fold change /veh PRB3 (11715151_x_at) / RFU TUBB4B (11761932_at) / Fold change /veh TUBB4B (11761932_at) / RFU CAPN14 (11732068_a_at) / Fold change /veh CAPN14 (11732068_a_at) / RFU TMCC2 (11721928_a_at) / Fold change /veh TMCC2 (11721928_a_at) / RFU IRGQ (11745062_a_at) / Fold change /veh IRGQ (11745062_a_at) / RFU FAM174B (11720279_a_at) / Fold change /veh FAM174B (11720279_a_at) / RFU TMPRSS4 (11748680_a_at) / Fold change /veh TMPRSS4 (11748680_a_at) / RFU FAM212B (11763350_a_at) / Fold change /veh FAM212B (11763350_a_at) / RFU PLEKHG5 (11743358_a_at) / Fold change /veh PLEKHG5 (11743358_a_at) / RFU ZSCAN30 (11745921_a_at) / Fold change /veh ZSCAN30 (11745921_a_at) / RFU CMKLR1 (11741424_a_at) / Fold change /veh CMKLR1 (11741424_a_at) / RFU LOC101060620 /// MAPK8IP1 (11723275_at) / Fold change /veh LOC101060620 /// MAPK8IP1 (11723275_at) / RFU SPTSSB (11747773_x_at) / Fold change /veh SPTSSB (11747773_x_at) / RFU PRSS12 (11739890_at) / Fold change /veh PRSS12 (11739890_at) / RFU BIN1 (11741810_x_at) / Fold change /veh BIN1 (11741810_x_at) / RFU WNT11 (11732464_a_at) / Fold change /veh WNT11 (11732464_a_at) / RFU C10orf10 (11716521_a_at) / Fold change /veh C10orf10 (11716521_a_at) / RFU C5orf56 (11738089_at) / Fold change /veh C5orf56 (11738089_at) / RFU CYB561 (11721691_x_at) / Fold change /veh CYB561 (11721691_x_at) / RFU ANKRD19P (11752326_a_at) / Fold change /veh ANKRD19P (11752326_a_at) / RFU OR2T12 /// OR2T33 /// OR2T8 (11738714_s_at) / Fold change /veh OR2T12 /// OR2T33 /// OR2T8 (11738714_s_at) / RFU VCAN (11748164_a_at) / Fold change /veh VCAN (11748164_a_at) / RFU JSRP1 (11732532_at) / Fold change /veh JSRP1 (11732532_at) / RFU KRTAP10-11 (11738290_x_at) / Fold change /veh KRTAP10-11 (11738290_x_at) / RFU MYO3A (11730013_a_at) / Fold change /veh MYO3A (11730013_a_at) / RFU EBF3 (11725865_a_at) / Fold change /veh EBF3 (11725865_a_at) / RFU CAMK2N1 (11719241_x_at) / Fold change /veh CAMK2N1 (11719241_x_at) / RFU C5orf56 (11738088_a_at) / Fold change /veh C5orf56 (11738088_a_at) / RFU OLFML3 (11715873_a_at) / Fold change /veh OLFML3 (11715873_a_at) / RFU LOC100653217 /// NTM (11731650_a_at) / Fold change /veh LOC100653217 /// NTM (11731650_a_at) / RFU MAPK11 (11762145_a_at) / Fold change /veh MAPK11 (11762145_a_at) / RFU FIZ1 (11724087_x_at) / Fold change /veh FIZ1 (11724087_x_at) / RFU OASL (11726364_x_at) / Fold change /veh OASL (11726364_x_at) / RFU SOX15 (11748057_x_at) / Fold change /veh SOX15 (11748057_x_at) / RFU CD79A (11719716_a_at) / Fold change /veh CD79A (11719716_a_at) / RFU HIST1H1D (11736915_at) / Fold change /veh HIST1H1D (11736915_at) / RFU CASKIN2 (11723855_a_at) / Fold change /veh CASKIN2 (11723855_a_at) / RFU LOC730098 (11760151_x_at) / Fold change /veh LOC730098 (11760151_x_at) / RFU OR4N2 (11742367_at) / Fold change /veh OR4N2 (11742367_at) / RFU PRRT2 (11749266_a_at) / Fold change /veh PRRT2 (11749266_a_at) / RFU SNX32 (11753110_a_at) / Fold change /veh SNX32 (11753110_a_at) / RFU CDHR5 (11726645_a_at) / Fold change /veh CDHR5 (11726645_a_at) / RFU RCAN1 (11760418_a_at) / Fold change /veh RCAN1 (11760418_a_at) / RFU FAM167A (11723789_a_at) / Fold change /veh FAM167A (11723789_a_at) / RFU FAM26E (11764081_at) / Fold change /veh FAM26E (11764081_at) / RFU ISYNA1 (11749810_s_at) / Fold change /veh ISYNA1 (11749810_s_at) / RFU ACY1 (11761880_at) / Fold change /veh ACY1 (11761880_at) / RFU 11764098_at / Fold change /veh 11764098_at / RFU SAMD14 (11745864_x_at) / Fold change /veh SAMD14 (11745864_x_at) / RFU NPB (11741838_a_at) / Fold change /veh NPB (11741838_a_at) / RFU TMPRSS6 (11731388_a_at) / Fold change /veh TMPRSS6 (11731388_a_at) / RFU KRTAP10-2 (11738614_at) / Fold change /veh KRTAP10-2 (11738614_at) / RFU ARHGAP8 /// PRR5-ARHGAP8 (11727945_x_at) / Fold change /veh ARHGAP8 /// PRR5-ARHGAP8 (11727945_x_at) / RFU KRTAP5-7 /// NADSYN1 (11734609_at) / Fold change /veh KRTAP5-7 /// NADSYN1 (11734609_at) / RFU RASL12 (11751679_a_at) / Fold change /veh RASL12 (11751679_a_at) / RFU CDKN2B (11736163_a_at) / Fold change /veh CDKN2B (11736163_a_at) / RFU PRF1 (11729649_at) / Fold change /veh PRF1 (11729649_at) / RFU, ZNF638 /// ZNF638-IT1 / Fold change vs veh, ZNF638 /// ZNF638-IT1 / RFU, PANK3 / Fold change vs veh, PANK3 / RFU, SH3YL1 / Fold change vs veh, SH3YL1 / RFU, ZEB2 / Fold change vs veh, ZEB2 / RFU, NRIP1 / Fold change vs veh, NRIP1 / RFU, PTTG1IP / Fold change vs veh, PTTG1IP / RFU, CAPN2 / Fold change vs veh, CAPN2 / RFU, MED14 / Fold change vs veh, MED14 / RFU, SNORA58 / Fold change vs veh, SNORA58 / RFU, C1orf63 / Fold change vs veh, C1orf63 / RFU, LRRFIP1 / Fold change vs veh, LRRFIP1 / RFU, NDUFAF7 / Fold change vs veh, NDUFAF7 / RFU, SLC12A2 / Fold change vs veh, SLC12A2 / RFU, IBTK / Fold change vs veh, IBTK / RFU, ESF1 / Fold change vs veh, ESF1 / Fold change vs veh, TMEM50B / RFU, TAOK1 / Fold change vs veh, TAOK1 / RFU, ACBD3 / Fold change vs veh, ACBD3 / RFU, TMA16 / Fold change vs veh, TMA16 / RFU, RWDD3 / Fold change vs veh, RWDD3 / RFU, BCAT1 / Fold change vs veh, BCAT1 / RFU, EDEM3 / Fold change vs veh, EDEM3 / RFU, TMEM33 / Fold change vs veh, TMEM33 / RFU, WDR75 / Fold change vs veh, WDR75 / RFU, AHCTF1 / Fold change vs veh, AHCTF1 / RFU, TFRC / Fold change vs veh, TFRC / RFU, ZDHHC17 / Fold change vs veh, ZDHHC17 / RFU, NOM1 / Fold change vs veh, NOM1 / RFU, ARL8B / Fold change vs veh, ARL8B / RFU, ZBTB11 / Fold change vs veh, ZBTB11 / RFU, TAMM41 / Fold change vs veh, TAMM41 / RFU, KIAA1704 /// LOC100996395 / Fold change vs veh, KIAA1704 /// LOC100996395 / RFU, ING1 / Fold change vs veh, ING1 / RFU, TRMT61B / Fold change vs veh, TRMT61B / RFU, FUBP3 / Fold change vs veh, FUBP3 / RFU, TP53 / Fold change vs veh, TP53 / RFU, TNKS2 / Fold change vs veh, TNKS2 / RFU, ZFP14 / Fold change vs veh, ZFP14 / RFU, ACTR2 / Fold change vs veh, ACTR2 / RFU, PPP3R1 / Fold change vs veh, PPP3R1 / RFU, PIK3R1 / Fold change vs veh, PIK3R1 / RFU, HNRNPA1 / Fold change vs veh, HNRNPA1 / RFU, RNF170 / Fold change vs veh, RNF170 / RFU, ZNF28 / Fold change vs veh, ZNF28 / RFU, RNGTT / Fold change vs veh, RNGTT / RFU, OGT / Fold change vs veh, OGT / RFU, BRD1 / Fold change vs veh, BRD1 / RFU, MARS / Fold change vs veh, MARS / RFU, ZNF655 / Fold change vs veh, ZNF655 / RFU, FAHD1 / Fold change vs veh, FAHD1 / RFU, BDP1 / Fold change vs veh, BDP1 / RFU, LRRCC1 / Fold change vs veh, LRRCC1 / RFU, ARID1A / Fold change vs veh, ARID1A / RFU, ZNF146 / Fold change vs veh, ZNF146 / RFU, ZNF330 / Fold change vs veh, ZNF330 / RFU, GPN3 / Fold change vs veh, GPN3 / RFU, C9orf123 / Fold change vs veh, C9orf123 / RFU, N4BP2L2 / Fold change vs veh, N4BP2L2 / RFU, ARFIP1 / Fold change vs veh, ARFIP1 / RFU, FAM179B / Fold change vs veh, FAM179B / RFU, BCL10 / Fold change vs veh, BCL10 / RFU, UHRF1BP1L / Fold change vs veh, UHRF1BP1L / RFU, BET1 / Fold change vs veh, BET1 / RFU, CNOT2 / Fold change vs veh, CNOT2 / RFU, ZNF268 / Fold change vs veh, ZNF268 / Fold change vs veh, ZNF507 / RFU, DGCR2 / Fold change vs veh, DGCR2 / RFU, WDSUB1 / Fold change vs veh, WDSUB1 / Fold change vs veh, HSP90B1 /// MIR3652 / RFU, ADSS / Fold change vs veh, ADSS / RFU, GK / Fold change vs veh, GK / RFU, ZNF148 / Fold change vs veh, ZNF148 / RFU, TAF9 / Fold change vs veh, TAF9 / RFU, SLC1A5 / Fold change vs veh, SLC1A5 / RFU, SLMO2 / Fold change vs veh, SLMO2 / RFU, ABCC4 / Fold change vs veh, ABCC4 / RFU, LOC101060439 /// RAP1B / Fold change vs veh, LOC101060439 /// RAP1B / RFU, RFX7 / Fold change vs veh, RFX7 / RFU, GTPBP10 / Fold change vs veh, GTPBP10 / RFU, CNEP1R1 / Fold change vs veh, CNEP1R1 / RFU, BIVM-ERCC5 /// ERCC5 / Fold change vs veh, BIVM-ERCC5 /// ERCC5 / RFU, ILF3 / Fold change vs veh, ILF3 / RFU 11762660_at / Fold change /veh 11762660_at / RFU VCAN (11757783_s_at) / Fold change /veh VCAN (11757783_s_at) / RFU DDX43 (11728927_at) / Fold change /veh DDX43 (11728927_at) / RFU KRT8 (11758188_x_at) / Fold change /veh KRT8 (11758188_x_at) / RFU NKD1 (11759106_at) / Fold change /veh NKD1 (11759106_at) / RFU SRD5A1 (11742802_a_at) / Fold change /veh SRD5A1 (11742802_a_at) / RFU TPSAB1 /// TPSB2 (11721975_s_at) / Fold change /veh TPSAB1 /// TPSB2 (11721975_s_at) / RFU GSTM3 (11746129_a_at) / Fold change /veh GSTM3 (11746129_a_at) / RFU IL23R (11737362_x_at) / Fold change /veh IL23R (11737362_x_at) / RFU TMEM51 (11727254_a_at) / Fold change /veh TMEM51 (11727254_a_at) / RFU PIWIL2 (11732686_x_at) / Fold change /veh PIWIL2 (11732686_x_at) / RFU ORM1 (11744905_x_at) / Fold change /veh ORM1 (11744905_x_at) / RFU CCDC152 (11743942_at) / Fold change /veh CCDC152 (11743942_at) / RFU ECM1 (11717891_a_at) / Fold change /veh ECM1 (11717891_a_at) / RFU IL23R (11748794_a_at) / Fold change /veh IL23R (11748794_a_at) / RFU TNFAIP8L3 (11732012_x_at) / Fold change /veh TNFAIP8L3 (11732012_x_at) / RFU MBOAT4 (11741988_at) / Fold change /veh MBOAT4 (11741988_at) / RFU 11764193_at / Fold change /veh 11764193_at / RFU TMEM53 (11763286_at) / Fold change /veh TMEM53 (11763286_at) / RFU MAGEB2 (11727129_at) / Fold change /veh MAGEB2 (11727129_at) / RFU TMEM200A (11744735_a_at) / Fold change /veh TMEM200A (11744735_a_at) / RFU CCDC152 (11751479_a_at) / Fold change /veh CCDC152 (11751479_a_at) / RFU FAM211A (11726209_a_at) / Fold change /veh FAM211A (11726209_a_at) / RFU RGS16 (11746705_a_at) / Fold change /veh RGS16 (11746705_a_at) / RFU VCAN (11755009_s_at) / Fold change /veh VCAN (11755009_s_at) / RFU RHOB (11743442_s_at) / Fold change /veh RHOB (11743442_s_at) / RFU RGS16 (11720943_a_at) / Fold change /veh RGS16 (11720943_a_at) / RFU RGS16 (11720944_at) / Fold change /veh RGS16 (11720944_at) / RFU, VPS4B / Fold change vs veh, VPS4B / RFU, CREB1 / Fold change vs veh, CREB1 / RFU, DNAJC13 / Fold change vs veh, DNAJC13 / RFU, GNAQ / Fold change vs veh, GNAQ / RFU, CDK5R1 / Fold change vs veh, CDK5R1 / RFU, ZRANB3 / Fold change vs veh, ZRANB3 / RFU, CUL4A / Fold change vs veh, CUL4A / RFU, CCNY / Fold change vs veh, CCNY / RFU, UFL1 / Fold change vs veh, UFL1 / RFU, COG3 / Fold change vs veh, COG3 / RFU, DIAPH2 / Fold change vs veh, DIAPH2 / RFU, SKA2 / Fold change vs veh, SKA2 / RFU, AFF3 / Fold change vs veh, AFF3 / RFU, LMF1 / Fold change vs veh, LMF1 / RFU, IPO11 / Fold change vs veh, IPO11 / RFU, DFFB / Fold change vs veh, DFFB / RFU, FOXP1 / Fold change vs veh, FOXP1 / RFU, CARD8 / Fold change vs veh, CARD8 / RFU, STRN3 / Fold change vs veh, STRN3 / RFU, ADK / Fold change vs veh, ADK / RFU, RASSF2 / Fold change vs veh, RASSF2 / RFU, WIPF1 / Fold change vs veh, WIPF1 / RFU, LARP1B / Fold change vs veh, LARP1B / RFU, RASA1 / Fold change vs veh, RASA1 / RFU, RB1 / Fold change vs veh, RB1 / RFU, PPFIA1 / Fold change vs veh, PPFIA1 / RFU, MAT2A / Fold change vs veh, MAT2A / RFU, CCT5 / Fold change vs veh, CCT5 / RFU, WDR92 / Fold change vs veh, WDR92 / RFU, CUX1 / Fold change vs veh, CUX1 / RFU, TTC7A / Fold change vs veh, TTC7A / RFU, TMEM135 / Fold change vs veh, TMEM135 / RFU, DEPTOR / Fold change vs veh, DEPTOR / RFU, CPM / Fold change vs veh, CPM / RFU, DNAJB6 / Fold change vs veh, DNAJB6 / RFU, CACNA2D3 / Fold change vs veh, CACNA2D3 / RFU, DTX4 / Fold change vs veh, DTX4 / RFU, TFCP2 / Fold change vs veh, TFCP2 / RFU, GMCL1 /// GMCL1P1 / Fold change vs veh, GMCL1 /// GMCL1P1 / RFU, AEBP2 / Fold change vs veh, AEBP2 / RFU, SNHG1 /// SNORD22 /// SNORD25 /// SNORD26 /// SNORD27 /// SNORD28 /// SNORD29 /// SNORD31 / Fold change vs veh, SNHG1 /// SNORD22 /// SNORD25 /// SNORD26 /// SNORD27 /// SNORD28 /// SNORD29 /// SNORD31 / Fold change (Aza/veh), C12orf56 (ProbeSet 11735607_a_at) / Fold change (ACY-1035/veh), C12orf56 (ProbeSet 11735607_a_at) / Fold change (Aza/veh), FGFR1OP (ProbeSet 11751329_s_at) / Fold change (ACY-1035/veh), FGFR1OP (ProbeSet 11751329_s_at) / Fold change (Aza/veh), VPS36 (ProbeSet 11739960_a_at) / Fold change (ACY-1035/veh), VPS36 (ProbeSet 11739960_a_at) / RFU SYPL1 (11715823_x_at) / Fold change /veh SYPL1 (11715823_x_at) / RFU IGFBP7 (11715501_s_at) / Fold change /veh IGFBP7 (11715501_s_at) / RFU REEP3 (11722064_at) / Fold change /veh REEP3 (11722064_at) / RFU IGLL1 (11728026_x_at) / Fold change /veh IGLL1 (11728026_x_at): dose or concentration left out as unconfirmed
Settings: ProbeSet 11760938_a_at; LIST D

## Nc1ncn([C@@H]2O[C@H](CO)[C@@H](O)[C@H]2O)c(=O)n1 [azacitidine]
  RFU, MAT2A: 129.03 RFU
